Assay results as given in patent US20240262812A1, “N-SUBSTITUTED PHENYLSULFONAMIDE COMPOUND AND USE THEREOF” (Shanghai Leado Pharmatech Co., Ltd., priority 2021, published 2024).

Target: T1, chemokine receptor CCR9 (Homo sapiens, UniProt P51686)
T1 construct: expressed in transfected cells
T1 sequence (P51686 1-369): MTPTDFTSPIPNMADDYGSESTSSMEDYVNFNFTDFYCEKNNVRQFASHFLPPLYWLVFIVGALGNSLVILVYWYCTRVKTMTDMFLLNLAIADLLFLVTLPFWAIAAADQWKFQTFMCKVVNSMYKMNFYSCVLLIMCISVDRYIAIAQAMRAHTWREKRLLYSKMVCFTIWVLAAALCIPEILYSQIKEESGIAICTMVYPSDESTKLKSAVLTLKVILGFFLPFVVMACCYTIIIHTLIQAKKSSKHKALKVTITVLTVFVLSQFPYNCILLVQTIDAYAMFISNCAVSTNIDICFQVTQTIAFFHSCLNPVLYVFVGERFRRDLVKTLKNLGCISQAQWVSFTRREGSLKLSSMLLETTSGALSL
Assay: CCR9 antagonistic activity, calcium flow (Fluo-4, FlexStation), CCL25 agonist
Type: cell-based
Conditions: antagonistic mode, CCL25 150 nM; for inhibition at 100 µM: read-out: Inhibition rate (%) (100 μM)
Text: 2.1 Main reagents: DMEM culture medium (GIBCO); dimethyl sulfoxide (Sigma); FLUO-4, AM (Invitrogen) 2.2 Main instrument: Flexstation-3 (Molecular Devices) The test concentration gradient of the compound and replicates were set according to the requirement of testing ICSO. All test substances with 8 concentrations were set, with 3 replicates for each concentration. By establishing a cell line that cotransformed the receptor and G16, the receptor being activated can induce the activation of Gα16 protein, thereby activating phospholipase C (PLC) to produce IP3 and DAG. IP3 can bind to the IP3 receptor on the intracellular endoplasmic reticulum and mitochondria, leading to the release of intracellular calcium. Therefore, measuring changes in intracellular calcium can serve as a method for detecting the activation status of target receptor. Fluo-4/AM is a calcium fluorescent probe indicator used to measure calcium ion, as a non-polar lipophilic compound, under the action of cell lipase after entering cells, the AM group dissociates and releases Fluo-4; since Fluo-4 is a polar molecule, it is not easy to pass through lipid bilayers, allowing it to remain in the cell for a long time. Ultimately, the level of G protein activation can be reflected by measuring the excited fluorescence intensity. […] Cells stably expressing the target receptor/Ga16 were planted on a 96 well plate and cultured overnight. 2. The culture solution was removed from the well planted cells, then 40 μL/well of freshly prepared dye was added. The mixture was incubated at a constant temperature in a 37° C. incubator for 40 minutes. 3. The drug to be tested was diluted with calcium buffer and mixed well. 4. The dye was absorbed and discarded. After washed once with freshly prepared calcium buffer, 50 μL of calcium buffer that dissolved the drug to be tested was added for replacement. 5. The FlexStation II instrument was used for detection. Starting from the 15th second, […] dissolved with known agonist was automatically added by the instrument, and finally the fluorescence value at 525 nm was readed. The following formula was used to calculate the cell response rate (% Response) for each sample under each concentration. […] IC50 value was calculated using GraphPad Prism.

Work on `CNCc1ccc(NS(=O)(=O)c2ccsc2)c(-c2ccco2)c1` [IA-30] yielded an inhibition at 100 µM of 3% and an IC50 of over 100 µM.

In the case of `CNCc1ccc(-c2nccs2)c(NS(=O)(=O)c2ccccc2)c1` [IA-51, N-(5-((methylamino)methyl)-2-(thiazol-2-yl)phenyl)benzenesulfonamide], the inhibition at 100 µM is reported as 3% and the IC50 is reported as over 100 µM.

In the case of `CNCc1ccc(-c2cc[nH]n2)c(NS(=O)(=O)c2ccccc2)c1` [IA-55, N-(5-((methylamino)methyl)-2-(1H-pyrazol-3-yl)phenyl)benzenesulfonamide], the inhibition at 100 µM is reported as 8% and the IC50 is reported as over 100 µM.

`NCc1ccc(NS(=O)(=O)c2ccsc2)c(-c2ccco2)c1` [ID-5] was tested, and the inhibition at 100 µM was 8% and the IC50 was over 100 µM.
